As usually defined, the GI50 is the concentration at which growth is held to half of that of the control. What is called TGI is the concentration at which net growth stops. Low values mean greater sensitivity of the cells, high ones lower sensitivity of the cells.

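Results reflect a 48-hour exposure of cells in 96-well plates to compound at five concentrations. Here, GI50 denotes the concentration required for 50% inhibition of growth. TGI marks complete inhibition of growth.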

The record followed here is PubChem BioAssay (NCI).

Some test systems named below: A549 NSCLC; COLO 205 colon; EKVX NSCLC; HT29 colon; KM12 colon; NCI-H23 lung; SK-MEL-2 melanoma; SK-MEL-5 melanoma; SW-620 colon; U251 CNS.
Common to all, as to assay: DTP human tumour cell line panel, 48 h

Regarding `COc1ccc2c(c1)C(=O)c1c-2n(CCCCl)c(=O)c2cc([N+](=O)[O-])ccc12`, the GI50 with A549 NSCLC is 0.196 µM; with COLO 205 colon, 0.902 µM; in the test on EKVX NSCLC it was 30.8 µM; with HT29 colon, 0.0917 µM; with KM12 colon, 0.271 µM; with NCI-H23 lung, 0.107 µM. The GI50 is 3.56 µM in the test on SK-MEL-2 melanoma, 0.498 µM in the test with SK-MEL-5 melanoma, 0.123 µM in the test with SW-620 colon and less than 0.01 µM in the test on U251 CNS. Further, the TGI with A549 NSCLC is more than 100 µM; in the test on COLO 205 colon, more than 100 µM; in the test on EKVX NSCLC, more than 100 µM; in the test with HT29 colon, more than 100 µM; with SK-MEL-2 melanoma, more than 95.6 µM; with SK-MEL-5 melanoma, 2.07 µM. The molecule further showed a TGI in the test with U251 CNS of 0.476 µM.
Turning to `CCCCC1CCCCCCc2[nH]c(/C=C3\N=C(c4ccc[nH]4)C=C3OC)cc21` (configuration not stated), the TGI in the test with A549 NSCLC was determined as 0.0354 µM; in the test on COLO 205 colon it was 1.39 µM; with EKVX NSCLC it was 1.73 µM; in the test with HT29 colon, 1.11 µM; with KM12 colon it was 4.91 µM; with NCI-H23 lung it was 1.28 µM. For the same molecule, the TGI is less than 0.0237 µM in the test on SK-MEL-2 melanoma, 0.107 µM in the test with SK-MEL-5 melanoma, 1.15 µM in the test on SW-620 colon and 0.49 µM with U251 CNS.
As for `CC1(C)CCCC2(C)C3=C(CCC12)C(=O)OC3` (configuration not stated), the TGI in the test on A549 NSCLC, with COLO 205 colon, in the test on EKVX NSCLC, in the test on HT29 colon, with KM12 colon and with NCI-H23 lung was more than 100 µM in each case. In addition, the TGI in the test with SK-MEL-2 melanoma, in the test on SK-MEL-5 melanoma, in the test with SW-620 colon and with U251 CNS was more than 100 µM in each case.
With `COc1ccc(C(=O)NNC(=O)c2nsc3ccccc23)cc1`, the TGI in the test on A549 NSCLC, in the test with COLO 205 colon, in the test with EKVX NSCLC, in the test on HT29 colon, in the test with KM12 colon and in the test with NCI-H23 lung was more than 100 µM throughout. For the same molecule, the TGI with SK-MEL-2 melanoma, in the test on SK-MEL-5 melanoma, with SW-620 colon and in the test on U251 CNS was more than 100 µM throughout.
For `CCc1cc(C)cc2[n+]1CC=C2C`, the TGI in the test with A549 NSCLC, in the test on COLO 205 colon, in the test on EKVX NSCLC, with HT29 colon, with KM12 colon and with NCI-H23 lung was more than 100 µM throughout. The TGI with SK-MEL-2 melanoma, in the test on SK-MEL-5 melanoma, in the test on SW-620 colon and with U251 CNS was more than 100 µM in each case.
With `COC(=O)C12OCC34C(CC5C(C)C6=CC(=O)OC6=CC5(C)C3C(O)C1O)OC(=O)C(OC(C)=O)C24` (configuration not stated), the TGI in the test on A549 NSCLC came to 49.9 µM; in the test on COLO 205 colon, 22.6 µM; in the test on EKVX NSCLC, 31 µM; with HT29 colon it was 33.9 µM; in the test with KM12 colon it was 32.6 µM; with NCI-H23 lung, 32.5 µM. The TGI with SK-MEL-2 melanoma amounted to 21 µM; with SK-MEL-5 melanoma, 24.9 µM; in the test on SW-620 colon, 26.2 µM; in the test on U251 CNS, 57.8 µM.
As for `CCCCCCCCCCCCCCC(C(=O)[O-])[n+]1ccccc1` (configuration not stated), the TGI in the test on A549 NSCLC, with COLO 205 colon, in the test with EKVX NSCLC, with HT29 colon, in the test with KM12 colon and in the test with NCI-H23 lung was more than 100 µM throughout. Besides, the TGI in the test with SK-MEL-2 melanoma, in the test on SK-MEL-5 melanoma, in the test with SW-620 colon and in the test on U251 CNS was more than 100 µM each time.
Consider `NCc1ccc(O)c(O)c1O`, for which the TGI was 63.2 µM in the test with A549 NSCLC; 35.5 µM with COLO 205 colon; more than 100 µM in the test on EKVX NSCLC; 29.2 µM with HT29 colon; 49 µM in the test with KM12 colon; more than 67.3 µM with NCI-H23 lung. Moreover, the TGI came out at 57.2 µM in the test with SK-MEL-2 melanoma, 56 µM in the test with SK-MEL-5 melanoma, 43.3 µM in the test on SW-620 colon and 52.6 µM in the test with U251 CNS.
As for `Cc1nc2ccccc2c(=O)n1Nc1ccc(C(=O)O)cc1`, the TGI with A549 NSCLC, with COLO 205 colon, in the test with EKVX NSCLC, in the test on HT29 colon, with KM12 colon and in the test on NCI-H23 lung was more than 100 µM in each case. The TGI in the test on SK-MEL-2 melanoma, in the test on SK-MEL-5 melanoma, in the test on SW-620 colon and in the test with U251 CNS was more than 100 µM throughout.
As for `O=C(Nc1ccc(-n2ccc3c(NC(=O)c4ccccc4)ncnc32)cc1)Nc1ccc(Cl)c(C(F)(F)F)c1`, the GI50 in the test with A549 NSCLC is 1.67 µM; with COLO 205 colon it was 2.63 µM; in the test with EKVX NSCLC it was 1.97 µM; with HT29 colon, 1.52 µM; in the test with KM12 colon, 1.62 µM; with NCI-H23 lung, 2.19 µM. The GI50 in the test with SK-MEL-2 melanoma is 2.44 µM; in the test with SK-MEL-5 melanoma, 2.43 µM; in the test with SW-620 colon, 2.17 µM; in the test with U251 CNS it was 1.2 µM. Also, the TGI worked out at 3.58 µM in the test with A549 NSCLC; 5.86 µM with COLO 205 colon; 4.99 µM in the test with EKVX NSCLC; 3.14 µM in the test on HT29 colon; 3.79 µM in the test with KM12 colon; 5.28 µM in the test on NCI-H23 lung. Also, the TGI with SK-MEL-2 melanoma turned out to be 5.66 µM; in the test on SK-MEL-5 melanoma, 11.3 µM; in the test with SW-620 colon, 4.96 µM; with U251 CNS, 2.55 µM.
As for `O=C1CC(c2ccccc2)NCCCCN2CC(CN1)C(C(O)c1ccccc1)C2=O` (configuration not stated), the TGI with A549 NSCLC, in the test on COLO 205 colon, in the test on EKVX NSCLC, with HT29 colon, with KM12 colon and with NCI-H23 lung was more than 100 µM throughout. In addition, the TGI in the test with SK-MEL-2 melanoma, with SK-MEL-5 melanoma, with SW-620 colon and in the test with U251 CNS was more than 100 µM in each case.
Regarding `Nc1ccc([As](=O)(O)O)cc1`, the TGI with A549 NSCLC, in the test on COLO 205 colon, in the test with EKVX NSCLC, with HT29 colon, in the test with KM12 colon and with NCI-H23 lung was more than 100 µM each time. For the same molecule, the TGI with SK-MEL-2 melanoma, in the test with SK-MEL-5 melanoma, in the test on SW-620 colon and in the test on U251 CNS was more than 100 µM in each case.
